Experimental data: ChEMBL document CHEMBL6074647, “Design, synthesis and antitumor activity of novel 4-oxobutanamide derivatives” (Bioorg Med Chem Lett, 2024); call rule not given here

Assays:
[1] = test system: A498; assay: Antiproliferative activity against human A498 cells assessed as reduction in cell viability by MTT assay; type: functional, cell-based
[2] = test system: MDA-MB-231; assay: Antiproliferative activity against human MDA-MB-231 cells assessed as reduction in cell viability by MTT assay; type: functional, cell-based
[3] = test system: HeLa; assay: Antiproliferative activity against human HeLa cells assessed as reduction in cell viability by MTT assay; type: functional, cell-based
[4] = test system: HeLa; assay: Antiproliferative activity against human HeLa cells assessed as inhibition of cell growth; type: functional, cell-based
[5] = test system: NCI-H460; assay: Antiproliferative activity against human NCI-H460 cells assessed as inhibition of cell growth; type: functional, cell-based
[6] = test system: A498; assay: Antitumor activity against human A498 cells xenografted in chicken embryo chorioallantoic membrane assessed as decrease in tumor weight; type: functional, cell-based; conditions: dose 1-4 µM
[7] = test system: A498; assay: Inhibition of colony formation in human A498 cells assessed as proliferative capacity at 4 uM; type: functional; parameters: scale not given: the % may be the effect or the level left
[8] = test system: A498; assay: Anti-angiogenesis activity against human A498 cells xenografted in chicken embryo chorioallantoic membrane assessed as CAM blood vessel growth at 4 uM; type: functional
[9] = test system: A498; assay: Inhibition of cell adhesion in human A498 cells; type: functional, cell-based; conditions: dose 1-4 µM
[10] = test system: A498; assay: Inhibition of cell invasion in human A498 cells assessed as decrease in cell density invading the bottom surface of the membrane at 2 uM by Transwell assay; type: functional, cell-based
[11] = test system: A498; assay: Anti-angiogenesis activity against human A498 cells xenografted in chicken embryo chorioallantoic membrane assessed as CAM blood vessel growth at 2 uM; type: functional
[12] = test system: A498; assay: Inhibition of colony formation in human A498 cells assessed as proliferative capacity at 1 uM; type: functional; parameters: scale not given: the % may be the effect or the level left
[13] = test system: A498; assay: Antitumor activity against human A498 cells xenografted in chicken embryo chorioallantoic membrane assessed as decrease in tumor weight at 4 uM; type: functional, cell-based
[14] = test system: A498; assay: Anti-angiogenesis activity against human A498 cells xenografted in chicken embryo chorioallantoic membrane assessed as CAM blood vessel growth at 1 uM; type: functional
[15] = test system: A498; assay: Inhibition of colony formation in human A498 cells assessed as proliferative capacity at 2 uM; type: functional; parameters: scale not given: the % may be the effect or the level left
[16] = test system: A498; assay: Inhibition of cell invasion in human A498 cells assessed as decrease in cell density invading the bottom surface of the membrane by Transwell assay; type: functional, cell-based; conditions: dose 1-4 µM
[17] = test system: A498; assay: Inhibition of cell adhesion in human A498 cells at 4 uM; type: functional, cell-based
[18] = test system: SMMC-7721; assay: Antitumor activity against human […] cells; type: functional, cell-based
[19] = test system: PANC-1; assay: Antitumor activity against human PANC-1 cells; type: functional, cell-based
[20] = test system: A2780; assay: Antitumor activity against human A2780 cells; type: functional, cell-based

In the case of `COc1ccc(CN(C(=O)CCC(=O)Nc2ccccc2OC)c2cc(OC)c(OC)c(OC)c2)cc1`, the IC50 [1] is reported as 5.81 µM, the IC50 [2] is reported as 74.4 µM and the IC50 [3] is reported as 48.3 µM.

In the case of `COc1ccc(CN(C(=O)CCC(=O)Nc2ccccc2Cl)c2cc(OC)c(OC)c(OC)c2)cc1`, the IC50 [1] is reported as 5.58 µM, the IC50 [2] is reported as 73 µM and the IC50 [3] is reported as 41.9 µM.

Work on `COc1ccc(CN(C(=O)CCC(=O)Nc2cccc(OC)c2)c2cc(OC)c(OC)c(OC)c2)cc1` yielded an IC50 [1] of 8.27 µM, an IC50 [2] of 21.4 µM and an IC50 [3] of 12 µM.

`COc1ccc(CN(C(=O)CCC(=O)Nc2cccc(Cl)c2)c2cc(OC)c(OC)c(OC)c2)cc1` was tested, and the IC50 [1] was 10.7 µM, the IC50 [2] was 48.3 µM and the IC50 [3] was 20.4 µM.

For `COc1ccc(CN(C(=O)CCC(=O)Nc2cccc(F)c2)c2cc(OC)c(OC)c(OC)c2)cc1`, the IC50 [1] was 11.9 µM, the IC50 [2] was 56.2 µM and the IC50 [3] was 39.8 µM.

`COc1ccc(N(C)c2nc(C)nc3ccccc23)cc1NC(=O)CCC(=O)NO` was tested, and the IC50 [4] was 2.41 µM and the IC50 [5] was 1.05 µM.

For `COc1ccc(CN(C(=O)CCC(=O)Nc2ccc(OC)cc2)c2cc(OC)c(OC)c(OC)c2)cc1`, the Activity [6] was “Dose-dependent-effect”, the Activity [7] was 11.16% and the Activity [8] was 42.04%. For the same compound, the inhibition [9] was “Dose-dependent-effect”, the inhibition [10] was “Active; Better Activity Compared To 4 Um Positive Control, Paclitaxel And Colchicine” and the Activity [11] was 66.22%. It also gave an IC50 [1] of 1.94 µM, an IC50 [2] of 31.5 µM and an Activity [12] of 66.94%. For the same compound, the Activity [13] was “Active; Better Activity Compared To Positive Control, Paclitaxel And Colchicine”, the Activity [14] was 82.4% and the Activity [15] was 26.03%. The inhibition [16] was “Dose-dependent-effect”, the inhibition [17] was “Active; Better Activity Compared To Positive Control, Paclitaxel And Colchicine” and the IC50 [3] was 8.24 µM.

`COc1ccc(CN(C(=O)CCC(=O)Nc2ccc(Br)cc2)c2cc(OC)c(OC)c(OC)c2)cc1` showed an IC50 [1] of 5.4 µM, an IC50 [2] of 58.6 µM and an IC50 [3] of 20.8 µM.

Work on `COc1ccc(CN(C(=O)CCC(=O)Nc2ccc(O)cc2)c2cc(OC)c(OC)c(OC)c2)cc1` yielded an IC50 [1] of 3.23 µM, an IC50 [2] of 23.5 µM and an IC50 [3] of 11.8 µM.

`COc1ccc(CN(C(=O)CCC(=O)Nc2ccccc2)c2cc(OC)c(OC)c(OC)c2)cc1` gave an IC50 [1] of 2.11 µM, an IC50 [2] of 16.1 µM and an IC50 [3] of 16 µM.

`CC(=O)O[C@H]1C(=O)[C@@]2(C)[C@H]([C@H](OC(=O)c3ccccc3)[C@]3(O)C[C@H](OC(=O)[C@H](O)[C@@H](NC(=O)c4ccccc4)c4ccccc4)C(C)=C1C3(C)C)[C@]1(OC(C)=O)CO[C@@H]1C[C@@H]2O` [PACLITAXEL] showed an IC50 [2] of 31.4 µM and an IC50 [3] of 21.3 µM.

With `COc1ccc(CN(C(=O)CCC(=O)Nc2cccc(C)c2)c2cc(OC)c(OC)c(OC)c2)cc1` the IC50 [1] was 8.85 µM, the IC50 [2] was 16.6 µM and the IC50 [3] was 19.2 µM.

Work on `COc1ccc(CN(C(=O)C(=O)Nc2ccc(Cl)cc2)c2cc(OC)c(OC)c(OC)c2)cc1` yielded an IC50 [2] of 40.7 µM.

Work on `COc1ccc(CN(C(=O)CCC(=O)Nc2ccc(C(F)(F)F)cc2)c2cc(OC)c(OC)c(OC)c2)cc1` yielded an IC50 [1] of over 100 µM, an IC50 [2] of over 100 µM and an IC50 [3] of 4.65 µM.

Work on `COc1ccc(CCc2cc(OC)c(OC)c(OC)c2)cc1O` yielded an IC50 [18] of 0.29 µM, an IC50 [19] of 0.45 µM and an IC50 [20] of 0.42 µM.

`COc1ccc(CN(C(=O)C(=O)Nc2ccc(C)cc2)c2cc(OC)c(OC)c(OC)c2)cc1` gave an IC50 [2] of 55.9 µM.

Work on `COc1ccc(CN(C(=O)CCC(=O)Nc2ccc(C)cc2)c2cc(OC)c(OC)c(OC)c2)cc1` yielded an IC50 [1] of 5.34 µM, an IC50 [2] of 8.08 µM and an IC50 [3] of over 100 µM.

Work on `COc1ccc(CN(C(=O)CCC(=O)Nc2ccc(Cl)cc2)c2cc(OC)c(OC)c(OC)c2)cc1` yielded an IC50 [1] of 11.5 µM, an IC50 [2] of 22.5 µM and an IC50 [3] of 13.8 µM.

`COc1ccc(CN(C(=O)CCC(=O)Nc2cc(OC)c(OC)c(OC)c2)c2cc(OC)c(OC)c(OC)c2)cc1` was tested, and the IC50 [1] was over 100 µM, the IC50 [2] was over 100 µM and the IC50 [3] was 57.5 µM.

`COc1ccc(CN(C(=O)CCC(=O)Nc2ccc(F)cc2)c2cc(OC)c(OC)c(OC)c2)cc1` showed an IC50 [1] of 4.06 µM, an IC50 [2] of 24 µM and an IC50 [3] of 2.39 µM.

Work on `COc1cc2c(c(OC)c1OC)-c1ccc(OC)c(=O)cc1[C@@H](NC(C)=O)CC2` [COLCHICINE] yielded an IC50 [1] of 7.17 µM, an IC50 [2] of over 100 µM and an IC50 [3] of 32.7 µM.
